Consider 27 molecules from patent publication US20090099195A1 (ASTRAZENECA AB, priority 2007, published 2009).

SMILES strings stand for the structures.

The target of the experiment is T1, hP2X3 (human Purinergic P2X receptors subtype 3), clone B (Homo sapiens, UniProt P56373).
T1 sequence (P56373 1-397): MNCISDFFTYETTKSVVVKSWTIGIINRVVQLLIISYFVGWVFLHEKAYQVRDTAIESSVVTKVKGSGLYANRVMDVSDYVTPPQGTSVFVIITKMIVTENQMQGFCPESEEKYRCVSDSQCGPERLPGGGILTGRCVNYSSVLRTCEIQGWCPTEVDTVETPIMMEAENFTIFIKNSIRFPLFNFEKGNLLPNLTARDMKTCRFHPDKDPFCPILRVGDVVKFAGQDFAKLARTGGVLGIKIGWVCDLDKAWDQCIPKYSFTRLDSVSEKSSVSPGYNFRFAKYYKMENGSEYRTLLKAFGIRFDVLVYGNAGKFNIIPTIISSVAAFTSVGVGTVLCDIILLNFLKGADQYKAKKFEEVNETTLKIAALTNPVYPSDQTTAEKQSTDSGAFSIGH
In words: hP2X3 FLIPR calcium (Fluo-4) antagonist assay, clone B. The note with it: Human P2X3 FLIPR Clone B IC50 (nM), RLE cells expressing hP2X3 clone B (NM_002559); agonist 500 nM α,β-methylene-ATP.
Method: The assay used a calcium indicator dye (Fluo-4) that emits fluorescence, the intensity of which is related to the concentration of calcium that entered the cell when P2X3 was activated and the channel opened. Activation of hP2X3 or rat P2X3 and rat P2X2/3 (from the coexpression of rat P2X3 and rat P2×2) is elicited the by P2X3 agonist α,β methylene-ATP (Sigma M6517), and the resulting fluorescence is measured with a FLIPR II™ instrument (Molecular Devices). Compounds are tested for their ability to inhibit the agonist-induced fluorescent signal.
For the rat P2X2/3 HEK-TREX cells, induction of the rat P2X3 expression is used to generate the rat P2X2/3 channels in HEK-TREX cells and performed by addition of 1 μg/mL tetracycline (Invitrogen) 24 h prior to compounds testing to the HEK-TREX expressing the rat P2X2 constitutively. On the day of the experiment, the cells and test compounds are prepared as follows. […] After preparing the compounds, the medium is removed from the cell plates by inversion. A loading solution of 30 μL assay buffer containing 4 μM of the calcium indicator dye FLUO-4 AM (Molecular Probes F14202) is added to each well using a Multidrop (Labsystems). […] The incubation is terminated by washing the cells four times in assay buffer using a Skatron Embla (Molecular Devices), and 25 μL of assay buffer was left in each well. Cell plates are then transferred to the FLIPR. Experiments are initiated by measuring a baseline fluorescence reading for 10 seconds, followed by the addition of 12.5 μL of cpds and data sampling for a total 280 seconds. The experiments are terminated by addition of 12.5 μL of a reference agonist (500 nM α,β-methylene-ATP) or buffer, producing a final assay volume of 50 μL followed by data sampling for an additional 280 seconds.
In P2X3 antagonist experiments (human and rat assays) data are analysed as normalised maximal peak fluorescence monitored following agonist addition and calculated as percent of relative fluorescent counts from control agonist. The dose-response antagonist inhibition curves are analyzed in a 4-parameter sigmoidal fit using a non-linear curve-fitting program (XLfit version 5.0.6, ID Business Solutions Limited, Guildford, UK).
For the molecule `COc1ccc(CC2CCCN2c2nc(N3CCN(C(C)=O)CC3)nc3c2CN(C(C)C)C3=O)cc1` (single isomer, unassigned) [Example 288, 2-(4-acetylpiperazin-1-yl)-6-isopropyl-4-[2-[(4-methoxyphenyl)methyl]pyrrolidin-1-yl]-5H-pyrrolo[3,4-d]pyrimidin-7-one], the IC50 (as a rule, the concentration that gives 50% inhibition) stood at 1400 nM. The figure for `CC(C)N1Cc2c(NC(C)(C)Cc3ccc(Cl)cc3)nc(N3CCN(CC(=O)N(C)C)CC3)nc2C1=O` [Example 63, 2-[4-(4-{[2-(4-chlorophenyl)-1,1-dimethylethyl]amino}-6-isopropyl-7-oxo-6,7-dihydro-5H-pyrrolo[3,4-d]pyrimidin-2-yl)piperazin-1-yl]-N,N-dimethylacetamide] is 9200 nM.

Regarding `CC(=O)N1CCN(c2nc(NCc3cc4ccccc4nc3C)c3c(n2)C(=O)N(C(C)C)C3)CC1` [Example 241, 2-(4-acetylpiperazin-1-yl)-6-isopropyl-4-((2-methylquinolin-3-yl)methylamino)-5H-pyrrolo[3,4-d]pyrimidin-7(6H)-one], the half-maximal inhibitory concentration (IC50) worked out at 68 nM.

Consider `CC(C)N1Cc2c(NC(c3ccccc3)c3ccc(Cl)cc3)nc(N(C)CCN(C)C)nc2C1=O` (stereo not drawn) [Example 19, 4-{[(4-chlorophenyl)(phenyl)methyl]amino}-2-[[2-(dimethylamino)ethyl](methyl)amino]-6-isopropyl-5,6-dihydro-7H-pyrrolo[3,4-d]pyrimidin-7-one], for which the half-inhibitory concentration (IC50) turned out to be 93 nM. In the case of `CC(C)N1Cc2c(NC(C)(C)Cc3ccc(Cl)cc3)nc(N3CCN(C(=O)N(C)C)CC3)nc2C1=O` [Example 127, 4-(4-{[2-(4-chlorophenyl)-1,1-dimethylethyl]amino}-6-isopropyl-7-oxo-6,7-dihydro-5H-pyrrolo[3,4-d]pyrimidin-2-yl)-N,N-dimethylpiperazine-1-carboxamide], the half-inhibitory concentration (IC50) was 2200 nM.

Turning to `CC(=O)N1CCN(c2nc(NC(C)(C)Cc3ccc(F)cc3)c3c(n2)C(=O)N(C(C)C(C)C)C3)CC1` (stereo not drawn) [Example 313, 2-(4-acetylpiperazin-1-yl)-4-(1-(4-fluorophenyl)-2-methylpropan-2-ylamino)-6-(3-methylbutan-2-yl)-5H-pyrrolo[3,4-d]pyrimidin-7(6H)-one], the IC50 came out at 280 nM.

For the molecule `CC(=O)N1CCN(c2nc3c(c(N4CCCC4CCc4ccccc4)n2)CN(C(C)C)C3=O)CC1` (stereo not drawn) [Example 271, 4-(4-acetylpiperazin-1-yl)-2-(2-phenethylpyrrolidin-1-yl)-8-propan-2-yl-3,5,8-triazabicyclo[4.3.0]nona-1,3,5-trien-7-one], the IC50 is 870 nM.

On to `CC(=O)N1CCN(c2nc(NCc3cc(C(C)(C)C)[nH]n3)c3c(n2)C(=O)N(C(C)C)C3)CC1` [Example 143, 4-(4-acetylpiperazin-1-yl)-8-propan-2-yl-2-[(5-tert-butyl-1H-pyrazol-3-yl)methylamino]-3,5,8-triazabicyclo[4.3.0]nona-1,3,5-trien-7-one], for which the half-inhibitory concentration (IC50) came out at 160 nM. As to `CCC(=O)N1CCN(c2nc(NC(C)(C)Cc3ccc(Cl)cc3)c3c(n2)C(=O)N(C(C)C)C3)CC1` [Example 71, 4-{[2-(4-chlorophenyl)-1,1-dimethylethyl]amino}-6-isopropyl-2-(4-propionylpiperazin-1-yl)-5,6-dihydro-7H-pyrrolo[3,4-d]pyrimidin-7-one], the half-inhibitory concentration (IC50) was determined as 130 nM. The figure for `CC(=O)N1CCN(c2nc3c(c(N(Cc4cc5ccccc5cn4)C(C)C)n2)CN(C(C)C)C3=O)CC1` [Example 254, 2-(4-acetylpiperazin-1-yl)-6-isopropyl-4-(isopropyl(isoquinolin-3-ylmethyl)amino)-5H-pyrrolo[3,4-d]pyrimidin-7(6H)-one] is 75 nM; for `CC(=O)N1CCN(c2nc(N[C@@H](C)c3cnc4ccccc4c3)c3c(n2)C(=O)N(C(C)C)C3)CC1` [Example 234, (S)-2-(4-acetylpiperazin-1-yl)-6-isopropyl-4-(1-(quinolin-3-yl)ethylamino)-5H-pyrrolo[3,4-d]pyrimidin-7(6H)-one] it is 1100 nM; for `CC(C)N1Cc2c(NCc3cnc4ccccc4c3)nc(N3CCNC(=O)C3)nc2C1=O` [Example 206, 6-isopropyl-2-(3-oxopiperazin-1-yl)-4-(quinolin-3-ylmethylamino)-5H-pyrrolo[3,4-d]pyrimidin-7(6H)-one] it is 3200 nM. With `CC(C)N1Cc2c(Nc3ccc(Cl)cc3)nc(N3CCN(C(=O)CC4NC(=O)NC4=O)CC3)nc2C1=O` (stereo not drawn) [Example 31, 5-[2-(4-{4-[(4-chlorophenyl)amino]-6-isopropyl-7-oxo-6,7-dihydro-5H-pyrrolo[3,4-d]pyrimidin-2-yl}piperazin-1-yl)-2-oxoethyl]imidazolidine-2,4-dione], the concentration for half-maximal inhibition (IC50) turned out to be 270 nM. As for `CC(=O)N1CCN(c2nc3c(c(N4CCC[C@@H]4C(=O)OCc4ccc(Cl)cc4)n2)CN(C(C)C)C3=O)CC1` [Example 301, (4-chlorophenyl)methyl (2R)-1-[4-(4-acetylpiperazin-1-yl)-7-oxo-8-propan-2-yl-3,5,8-triazabicyclo[4.3.0]nona-1,3,5-trien-2-yl]pyrrolidine-2-carboxylate], the half-inhibitory concentration (IC50) amounted to 2500 nM. The value for `CC(=O)N1CCN(c2nc3c(c(N4CCC4Cc4ccccc4)n2)CN(C(C)C)C3=O)CC1` (stereo not drawn) [Example 273, 4-(4-acetylpiperazin-1-yl)-2-(2-benzylazetidin-1-yl)-8-propan-2-yl-3,5,8-triazabicyclo[4.3.0]nona-1,3,5-trien-7-one] was 3200 nM; that for `CCN1CCN(c2nc(NC(c3ccccc3)c3ccccn3)c3c(n2)C(=O)N(C(C)C)C3)CC1` (stereo not drawn) [Example 119, 2-(4-ethylpiperazin-1-yl)-6-isopropyl-4-{[phenyl(pyridin-2-yl)methyl]amino}-5,6-dihydro-7H-pyrrolo[3,4-d]pyrimidin-7-one] was 3200 nM; that for `CC(=O)N1CCN(c2nc(NC(C)c3nc(-c4ccccc4)no3)c3c(n2)C(=O)N(C(C)C)C3)CC1` (stereo not drawn) [Example 13, 2-(4-acetylpiperazin-1-yl)-6-isopropyl-4-{[1-(3-phenyl-1,2,4-oxadiazol-5-yl)ethyl]amino}-5,6-dihydro-7H-pyrrolo[3,4-d]pyrimidin-7-one] was 220 nM. Consider `CC(C)N1Cc2c(NC(c3ccc(F)cc3)c3ccc(F)cc3)nc(NCCN(C)C)nc2C1=O` [Example 17, 4-{[bis(4-fluorophenyl)methyl]amino}-2-{[2-(dimethylamino)ethyl]amino}-6-isopropyl-5,6-dihydro-7H-pyrrolo[3,4-d]pyrimidin-7-one], for which the 50% inhibitory concentration (IC50) worked out at 70 nM. In the case of `CC(=O)N1CCN(c2nc(NCc3cn4ccccc4n3)c3c(n2)C(=O)N(C(C)C)C3)CC1` [Example 155, 4-(4-acetylpiperazin-1-yl)-2-(1,7-diazabicyclo[4.3.0]nona-2,4,6,8-tetraen-8-ylmethylamino)-8-propan-2-yl-3,5,8-triazabicyclo[4.3.0]nona-1,3,5-trien-7-one], the 50% inhibitory concentration (IC50) was determined as 500 nM.

Regarding `CC(C)N1Cc2c(NCc3cnc4ccccc4c3)nc(N3CCn4cnnc4C3)nc2C1=O` [Example 137, 2-(5,6-Dihydro-[1,2,4]triazolo[4,3-a]pyrazin-7(8H)-yl)-6-isopropyl-4-(quinolin-3-ylmethylamino)-5H-pyrrolo[3,4-d]pyrimidin-7(6H)-one], the IC50 came out at 680 nM. The figure for `CC(=O)N1CCN(c2nc(N[C@H](C)c3ccc(C)c(C)c3)c3c(n2)C(=O)N(C(C)C)C3)CC1` [Example 170, (R)-2-(4-acetylpiperazin-1-yl)-4-(1-(3,4-dimethylphenyl)ethylamino)-6-isopropyl-5H-pyrrolo[3,4-d]pyrimidin-7(6H)-one] is 96 nM. As for `CC(=O)N1CCN(c2nc3c(c(N4CCCC4Cc4ccc(F)cc4)n2)CN(C(C)C)C3=O)CC1` (stereo not drawn) [Example 129, 2-(4-Acetylpiperazin-1-yl)-4-[2-(4-fluorobenzyl)-pyrrolidin-1-yl]-6-isopropyl-5H-pyrrolo[3,4-d]pyrimidin-7(6H)-one], the 50% inhibitory concentration (IC50) was 150 nM. In the case of `CC(C)N1Cc2c(NC(C)(C)Cc3ccc(Cl)cc3)nc(N3CCN(C=O)CC3)nc2C1=O` [Example 128, 4-(4-{[2-(4-chlorophenyl)-1,1-dimethylethyl]amino}-6-isopropyl-7-oxo-6,7-dihydro-5H-pyrrolo[3,4-d]pyrimidin-2-yl)piperazine-1-carbaldehyde], the IC50 is 280 nM. In the case of `CC(=O)N1CCN(c2nc3c(c(N4CCC[C@@H]4C(=O)N4CCC(C)CC4)n2)CN(C(C)C)C3=O)CC1` [Example 303, 4-(4-acetylpiperazin-1-yl)-2-[(2R)-2-(4-methylpiperidine-1-carbonyl)pyrrolidin-1-yl]-8-propan-2-yl-3,5,8-triazabicyclo[4.3.0]nona-2,4,10-trien-7-one], the IC50 stood at 2300 nM. The figure for `CC(=O)N1CCN(c2nc(NCc3cc(-c4ccccc4)n(C)n3)c3c(n2)C(=O)N(C(C)C)C3)CC1` [Example 153, 4-(4-acetylpiperazin-1-yl)-2-[(1-methyl-5-phenyl-pyrazol-3-yl)methylamino]-8-propan-2-yl-3,5,8-triazabicyclo[4.3.0]nona-1,3,5-trien-7-one] is 120 nM. The figure for `CC(=O)N1CCN(c2nc(N[C@H](C)c3ccc(C(C)(C)C#N)cc3)c3c(n2)C(=O)N(C(C)C)C3)CC1` [Example 161, (R)-2-(4-(1-(2-(4-acetylpiperazin-1-yl)-6-isopropyl-7-oxo-6,7-dihydro-5H-pyrrolo[3,4-d]pyrimidin-4-ylamino)ethyl)phenyl)-2-methylpropanenitrile] is 720 nM; for `CC(C)N1Cc2c(NC(c3ccccc3)c3ccccc3)nc(NCCO)nc2C1=O` [Example 100] it is 1100 nM.
